From PMC12508063, “Chloroindazole based estrogen receptor β ligands with favorable pharmacokinetics promote functional remyelination and visual recovery” (Scientific Reports, 2025)
“And” between values parts separate entries of the source, which are not always exact repeats. Equal entries are not always repeated. Where two headings read alike, the source gives them in different places.

Key:
[1] = microsomes
[2] = hepatocytes
[3] = target: CYP2C19 (Homo sapiens, UniProt P33261); conditions: 10 µM
CYP2C19, sequence (P33261 whole entry): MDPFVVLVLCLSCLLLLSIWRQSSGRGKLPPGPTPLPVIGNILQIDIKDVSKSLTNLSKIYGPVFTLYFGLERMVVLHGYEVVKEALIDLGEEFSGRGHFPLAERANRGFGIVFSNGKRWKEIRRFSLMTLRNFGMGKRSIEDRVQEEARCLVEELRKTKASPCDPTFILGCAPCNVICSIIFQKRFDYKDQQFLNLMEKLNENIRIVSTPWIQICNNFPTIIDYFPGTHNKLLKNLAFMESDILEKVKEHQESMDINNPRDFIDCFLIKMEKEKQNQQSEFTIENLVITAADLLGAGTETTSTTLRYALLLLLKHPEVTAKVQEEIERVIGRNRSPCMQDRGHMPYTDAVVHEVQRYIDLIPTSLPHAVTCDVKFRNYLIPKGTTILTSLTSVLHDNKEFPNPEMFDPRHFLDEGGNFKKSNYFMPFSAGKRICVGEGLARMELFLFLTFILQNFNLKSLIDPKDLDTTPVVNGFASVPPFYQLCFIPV

[4] = target: T1, CYP2D6 (Homo sapiens, UniProt P10635); conditions: 10 µM
T1 sequence (P10635 whole entry): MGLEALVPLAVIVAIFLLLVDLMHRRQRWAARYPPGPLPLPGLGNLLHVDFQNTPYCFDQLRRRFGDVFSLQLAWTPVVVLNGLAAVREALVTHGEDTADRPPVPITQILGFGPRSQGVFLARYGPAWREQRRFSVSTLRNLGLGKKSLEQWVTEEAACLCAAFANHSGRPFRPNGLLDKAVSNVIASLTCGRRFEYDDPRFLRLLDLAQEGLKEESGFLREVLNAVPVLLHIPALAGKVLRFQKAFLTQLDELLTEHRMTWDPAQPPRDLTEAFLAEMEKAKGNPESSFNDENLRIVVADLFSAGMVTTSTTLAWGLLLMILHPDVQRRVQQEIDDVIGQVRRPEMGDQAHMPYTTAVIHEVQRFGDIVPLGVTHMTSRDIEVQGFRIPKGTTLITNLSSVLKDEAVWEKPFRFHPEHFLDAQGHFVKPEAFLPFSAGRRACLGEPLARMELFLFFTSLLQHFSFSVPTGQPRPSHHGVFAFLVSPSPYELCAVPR

[5] = plasma
[6] = mouse, in vivo
Description: (§2) Mice were dosed intravenously at 5 mg/kg, subcutaneously at 10 mg/kg, and orally at 25 mg/kg.
(§3) Only values above the LLOQ.(0.3 ng/mL) were plotted.

[7] = tested on: EAE mice; experiment: Optical coherence tomography (RNFL thickness) in EAE; format: in vivo, mouse; conditions: vs EAE + V
Description: Optical coherence tomography, electroretinograms and visual evoked potentials: OCT was acquired using the spectral domain‐OCT (R2200 840 nm HHP; Leica, Deerfield, IL) at peak EAE disease according to previously published methods[23],[28]. Each image was taken 3 times and averaged. Automatic segmentation of retinal layers was performed using Bioptigen Diver 3.0 software (Leica Microsystems, Deerfield, IL). ERG and VEPs were measured using the HMsERG200 ([…], Henderson, NV) as previously described[23],[28]. Animals were dark adapted for a minimum of 5 h prior to recording. During acquisition, animals were anesthetized with continuous 2% isoflurane. Traces were averaged and filtered for 60 Hz noise and a low-pass filter. MATLAB was used to adjust baselines and smoothed prior to measuring ERG and VEP amplitudes and latencies.
Optical coherence tomography: OCT was acquired using the spectral domain‐OCT (R2200 840 nm HHP; Leica, Deerfield, IL) at peak EAE disease according to previously published methods(8, 9). Each image was taken 3 times and averaged. Automatic segmentation of retinal layers was performed using Bioptigen Diver 3.0 software (Leica Microsystems, Deerfield, IL).

[8] = tested on: EAE mice optic tract; experiment: Optic tract IHC in EAE; format: in vivo, mouse
Description: (§1) Animal Perfusions, tissue preparation, and IHC: Mice were deeply anesthetized and euthanized with isoflurane and intracardially perfused with ice‐cold PBS followed by 10% formalin in PBS (Fisher Scientific, Hampton, NH). Eyes, optic nerves, and brain were collected and processed for IHC as previously described[23],[28]. Antibody details are listed in Supplementary Table S6.
Imaging and Quantification: Retina, optic nerve, and brain sections were imaged using an Olympus BX61 spinning disk confocal microscope with 10× and 40× objectives[23],[28]. Z-stack images were captured and processed using Slidebook 6 and cellSense software. Immunofluorescence intensity and cell counts were quantified using NIH ImageJ, and statistical analysis was performed with GraphPad Prism.
Treatment with K102 alleviated EAE-induced demyelination relative to vehicle-treated mice.
as §1, with “Perfusions,” for “Animal Perfusions,”, “anesthetized” for “anesthetized and euthanized”, “described(8, 9).” for “described[23],[28].”
Imaging and Quantification: Retina, optic nerve, and brain sections were imaged using an Olympus BX61 spinning disk confocal microscope equipped with 10x and 40x Super Apochromat objectives (Olympus America Inc., Cypress, CA) connected to a camera (Hamamatsu Orca‐R2). Z‐stack images were acquired, and projection images were compiled using Slidebook 6 and cellSense software (Intelligent Imaging Innovations Inc, Santa Monica, CA). Immunofluorescence intensity and cell numbers were assessed with NIH ImageJ software (v1. 50i http://rsb.info.nih.gov/ij/) and quantified. Results from all counts were analyzed in GraphPad Prism for statistical significance.

[9] = target: CYP1A2 (Homo sapiens, UniProt P05177); experiment: CYP inhibition; conditions: test compounds at 10 μM; substrate Phenacetin
CYP1A2, sequence (P05177 whole entry): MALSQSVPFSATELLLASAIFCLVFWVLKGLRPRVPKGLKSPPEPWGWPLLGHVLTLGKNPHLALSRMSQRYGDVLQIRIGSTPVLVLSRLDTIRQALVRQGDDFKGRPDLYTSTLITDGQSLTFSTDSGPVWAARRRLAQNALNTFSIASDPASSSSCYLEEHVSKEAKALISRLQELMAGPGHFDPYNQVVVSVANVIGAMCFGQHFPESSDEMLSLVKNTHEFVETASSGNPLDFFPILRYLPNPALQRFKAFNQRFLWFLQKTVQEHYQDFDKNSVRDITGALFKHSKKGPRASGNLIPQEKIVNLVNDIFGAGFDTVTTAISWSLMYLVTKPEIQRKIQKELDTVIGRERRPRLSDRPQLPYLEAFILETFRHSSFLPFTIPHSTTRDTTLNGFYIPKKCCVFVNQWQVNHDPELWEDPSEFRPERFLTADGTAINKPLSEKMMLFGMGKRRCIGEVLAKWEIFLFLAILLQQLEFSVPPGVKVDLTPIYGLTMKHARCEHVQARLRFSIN

[10] = target: T1, CYP2D6; experiment: CYP inhibition; conditions: test compounds at 10 μM; substrate Dextromethorphan
[11] = Plasma protein binding (human)
[12] = Liver microsome stability (mouse)
[13] = Pharmacokinetics and brain/plasma distribution in CD1 mice (IV, SC, PO); conditions: CD1 mouse
Description: as §2, §3

For `Oc1ccc(-n2nc3ccc(O)cc3c2Cl)c(O)c1` [Compound K110, IndCl-o-OH], the “Liver Microsome Stability (Mouse) CLint” value [1] was 35.28 µL/min/mg protein, the “Liver Microsome Stability (Mouse) t1/2” value [1] was 20.06 min and the “Liver Microsome Stability (Mouse) % Remaining (30 min)” value ([1]; 0.5 h) was 35.72%. For the same molecule, the “Hepatocyte Stability (Human) CLint” value [2] was 12.69 µL/min/mg protein, the “Hepatocyte Stability (Human) % Remaining (15 min)” value ([2]; 0.25 h) was 87.14% and the “CYP Inhibition Percentage CYP2C19” value [3] was 27.89%. The “CYP Inhibition Percentage CYP2D6” value [4] was 5.63%, the “Protein Binding (% Bound) Human” value [5] was 93.27% and the Cl_obs ([6]; iv, 5 mg/kg) was 158 mL/min/kg. For the same molecule, the “Kp AUC0-t (brain/plasma)” value ([6]; iv, 5 mg/kg) was 0.37, the “Kp AUClast (brain/plasma)” value ([6]; iv, 5 mg/kg) was 0.37 and the Vss_obs ([6]; iv, 5 mg/kg) was 2.23 L/kg. The AUCinf brain ([6]; po, 25 mg/kg) was 354 ng·h/g, the AUCinf plasma ([6]; po, 25 mg/kg) was 780 ng·h/mL and the “Brain/Plasma Ratio(%)” value ([6]; po, 25 mg/kg) was 46%. The “Kp AUC0-t (brain/plasma)” value ([6]; po, 25 mg/kg) was 0.46, the “Kp AUClast (brain/plasma)” value ([6]; po, 25 mg/kg) was 0.41 and the AUCinf brain ([6]; sc, 10 mg/kg) was 303 ng·h/g. For the same molecule, the AUCinf plasma ([6]; sc, 10 mg/kg) was 1403 ng·h/mL, the “Brain/Plasma Ratio(%)” value ([6]; sc, 10 mg/kg) was 22% and the “F (Bioavailability)” value ([6]; sc, 10 mg/kg) was 133%. For the same molecule, the “Kp AUC0-t (brain/plasma)” value ([6]; sc, 10 mg/kg) was 0.22 and the “Kp AUClast (brain/plasma)” value ([6]; sc, 10 mg/kg) was 0.20.
For `Cc1cc(O)ccc1-n1nc2ccc(O)cc2c1Cl` [Compound K102, IndCl-o-Me], the “RNFL thickness (OCT)” value [7] was “prevented the significant reduction”, the “GFAP, mean value” [8] was “significantly reduced” and the “Iba1, mean value” [8] was “significantly reduced”. The “MBP, mean value” [8] was “alleviated”, the “NFM, mean value” [8] was “significantly increased” and the “SARM1, mean value” [8] was “did not produce a significant change”. The “GFAP, mean value” ([8]; listed as 102) was 14.14, the “Iba1, mean value” ([8]; listed as 102) was 9.623 and the “MBP, mean value” ([8]; listed as 102) was 27.62. For the same molecule, the “NFM, mean value” ([8]; listed as 102) was 18.64, the “SARM1, mean value” ([8]; listed as 102) was 11.45 and the “CYP Inhibition Percentage CYP1A2” value [9] was 26.19%. The “CYP Inhibition Percentage CYP2D6” value [10] was 18.26%, the “Protein Binding (% Bound) Human” value [11] was 97.08% and the “Liver Microsome Stability (Mouse) % Remaining (30 min)” value ([12]; 30 min) was 30.18%. The “Liver Microsome Stability (Mouse) CLint” value ([12]; mouse, microsomes) was 40.80 µL/min/mg protein, the “Liver Microsome Stability (Mouse) t1/2” value ([12]; mouse, microsomes) was 17.12 min and the “Kp AUC0-t (brain/plasma)” value ([13]; IV 5 mg/kg) was 0.43. The “Kp AUClast (brain/plasma)” value ([13]; IV 5 mg/kg) was 0.41, the “Ratio of Cmax (brain/plasma)” value ([13]; IV 5 mg/kg) was 0.54 and the Vss_obs ([13]; IV 5 mg/kg) was 5.74 L/kg. For the same molecule, the AUC0-t ([13]; IV 5 mg/kg, brain) was 211 ng·h/g, the T1/2 ([13]; IV 5 mg/kg, brain) was 52.2 min and the Tmax ([13]; IV 5 mg/kg, brain) was 6 min. For the same molecule, the AUC0-t ([13]; IV 5 mg/kg, plasma) was 491 ng·h/mL, the C0 or max ([13]; IV 5 mg/kg, plasma) was 3256 ng/mL and the Cl_obs ([13]; IV 5 mg/kg, plasma) was 169 mL/min/kg. For the same molecule, the T1/2 ([13]; IV 5 mg/kg, plasma) was 55.2 min, the “Kp AUC0-t (brain/plasma)” value ([13]; PO 25 mg/kg) was 0.40 and the “Ratio of Cmax (brain/plasma)” value ([13]; PO 25 mg/kg) was 0.59. The AUC0-t ([13]; PO 25 mg/kg, brain) was 391 ng·h/g, the Cmax ([13]; PO 25 mg/kg, brain) was 279 ng/g and the Tmax ([13]; PO 25 mg/kg, brain) was 15 min. The “T1/2 (brain retention)” value ([13]; PO 25 mg/kg, brain, 25 mg/kg) was 288 min and 287 min, the AUC0-t ([13]; PO 25 mg/kg, plasma) was 991 ng·h/mL and the Cmax ([13]; PO 25 mg/kg, plasma) was 471 ng/mL. The T1/2 ([13]; PO 25 mg/kg, plasma) was 611.4 min, the Tmax ([13]; PO 25 mg/kg, plasma) was 4.98 min and the “F (Bioavailability)” value ([13]; PO 25 mg/kg, plasma, 25 mg/kg) was 40% and 40.4%. The AUCinf plasma ([13]; PO 25 mpk) was 991 ng·h/mL, the “Brain/Plasma Ratio(%)” value ([13]; PO 25 mpk) was 40% and the “Kp AUC0-t (brain/plasma)” value ([13]; SC 10 mg/kg) was 0.35. For the same molecule, the “Kp AUClast (brain/plasma)” value ([13]; SC 10 mg/kg) was 0.35, the “Ratio of Cmax (brain/plasma)” value ([13]; SC 10 mg/kg) was 0.24 and the AUC0-t ([13]; SC 10 mg/kg, brain) was 477 ng·h/g. For the same molecule, the Cmax ([13]; SC 10 mg/kg, brain) was 218 ng/g, the Tmax ([13]; SC 10 mg/kg, brain) was 30 min and the “T1/2 (brain retention)” value ([13]; SC 10 mg/kg, brain, 10 mg/kg) was 120 min. For the same molecule, the “T1/2 (brain retention)” value ([13]; SC 10 mg/kg, brain, listed as IndCl-o-Me, 10 mg/kg) was 118 min, the AUC0-t ([13]; SC 10 mg/kg, plasma) was 1385 ng·h/mL and the Cmax ([13]; SC 10 mg/kg, plasma) was 919 ng/mL. It also gave a T1/2 ([13]; SC 10 mg/kg, plasma) of 134 min, a Tmax ([13]; SC 10 mg/kg, plasma) of 4.98 min and an AUCinf brain ([13]; SC 10 mpk) of 480 ng·h/g. The AUCinf plasma ([13]; SC 10 mpk) was 1390 ng·h/mL and the “Brain/Plasma Ratio(%)” value ([13]; SC 10 mpk) was 35%.
